Measurements taken from the NIST ThermoML archive (doi:10.1021/acs.jced.6b00168).
“And” between values parts separate entries of the source, which are not always exact repeats. Identical values can stand only once.

How the values were obtained:
[1] = mn = molality of the nth substance listed, in mol/kg; settings: 100 kPa, Liquid; for speed of sound: Frequency=3 MHz, Sing-around technique in a fixed-path interferometer; for mass density: Vibrating tube method
[2] = 298.15 K; 100 kPa; Liquid; Frequency=3 MHz; Sing-around technique in a fixed-path interferometer

O=C(N[C@H](CO)[C@H](O)c1ccc([N+](=O)[O-])cc1)C(Cl)Cl + O
[1]
Settings	mass density, 288.15 K [kg/m3]	mass density, 298.15 K [kg/m3]	mass density, 308.15 K [kg/m3]	mass density, 318.15 K [kg/m3]	speed of sound, 288.15 K [m/s]	speed of sound, 298.15 K [m/s]	speed of sound, 308.15 K [m/s]	speed of sound, 318.15 K
m1 = 0.0005	999.273	997.209	994.205	990.372	1466.9	1496	1519.6	1536.2 m/s
m1 = 0.001	999.429	997.363	994.356	990.522	1467	1496.1	1519.7	1536.4 m/s
m1 = 0.002	999.643	997.576	994.56	990.713	1467.1	1496.2	1519.9	1536.8 m/s and 1536.5 m/s
m1 = 0.004	999.922	997.847	994.831	990.992	1467.5	1496.7	1520.2	1536.8 m/s

O [water]
Settings	speed of sound [m/s]
[2]	1495.9
